The results in this text go back to the kinase profiling compilation of Christmann-Franck et al. (2016).

Chain of MYLK2 (human) (Q9H1R3 whole entry, looked up): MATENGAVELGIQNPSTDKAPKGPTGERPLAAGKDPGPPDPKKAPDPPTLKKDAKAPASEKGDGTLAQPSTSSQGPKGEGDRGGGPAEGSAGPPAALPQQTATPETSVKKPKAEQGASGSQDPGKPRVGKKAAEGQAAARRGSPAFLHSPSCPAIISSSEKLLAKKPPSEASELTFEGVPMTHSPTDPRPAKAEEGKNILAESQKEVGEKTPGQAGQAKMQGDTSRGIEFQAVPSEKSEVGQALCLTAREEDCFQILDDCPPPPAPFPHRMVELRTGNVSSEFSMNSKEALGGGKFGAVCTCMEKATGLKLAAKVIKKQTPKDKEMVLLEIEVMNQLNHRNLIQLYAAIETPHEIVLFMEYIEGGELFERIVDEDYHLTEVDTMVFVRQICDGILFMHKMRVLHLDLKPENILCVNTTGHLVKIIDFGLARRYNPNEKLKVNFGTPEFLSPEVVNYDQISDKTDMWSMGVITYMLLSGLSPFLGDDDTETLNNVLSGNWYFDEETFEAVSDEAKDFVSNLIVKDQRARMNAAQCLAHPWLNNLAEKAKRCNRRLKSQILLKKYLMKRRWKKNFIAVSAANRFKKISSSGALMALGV
Chain of TGFBR1 (human) (P36897 whole entry, looked up): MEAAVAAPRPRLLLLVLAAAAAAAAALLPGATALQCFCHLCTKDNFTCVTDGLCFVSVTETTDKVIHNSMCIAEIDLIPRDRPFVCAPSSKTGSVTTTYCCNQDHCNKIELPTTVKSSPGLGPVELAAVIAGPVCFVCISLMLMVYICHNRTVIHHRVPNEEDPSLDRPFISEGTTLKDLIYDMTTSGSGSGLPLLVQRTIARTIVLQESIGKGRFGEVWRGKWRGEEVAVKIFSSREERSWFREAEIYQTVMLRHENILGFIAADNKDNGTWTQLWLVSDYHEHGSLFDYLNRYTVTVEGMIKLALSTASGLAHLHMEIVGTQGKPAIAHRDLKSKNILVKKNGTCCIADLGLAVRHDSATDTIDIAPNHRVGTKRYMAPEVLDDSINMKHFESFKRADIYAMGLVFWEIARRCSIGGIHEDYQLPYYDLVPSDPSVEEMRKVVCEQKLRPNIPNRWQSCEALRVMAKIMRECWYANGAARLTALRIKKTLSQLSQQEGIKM

The first experiment deals with MAP3K10 (human) (UniProt Q02779). The experiment in a line: radiometric filter-binding kinase assay, Kinase HotSpot. The conditions noted are these: compound 0.5 µM; ATP 10 µM.
As to `Cc1[nH]c(/C=C2\C(=O)Nc3ccc(S(=O)(=O)N(C)c4cccc(Cl)c4)cc32)c(C)c1C(=O)N1CCN(C)CC1`, the residual activity (in general, the signal under treatment as a percentage of the control signal) stood at 74%.
Regarding `CNc1cc2c(Nc3cccc(Br)c3)ncnc2cn1`, the residual activity came out at 90.1%.
`Oc1cccc(-c2nc(N3CCOCC3)c3oc4ncccc4c3n2)c1`: the residual activity is 92%.

A further experiment deals with MAPK13 (human) (UniProt O15264). The experiment is described as above. The conditions noted are these: compound 0.5 µM; ATP 10 µM.
As to `Cc1[nH]c(/C=C2\C(=O)Nc3ccc(S(=O)(=O)N(C)c4cccc(Cl)c4)cc32)c(C)c1C(=O)N1CCN(C)CC1`, the residual activity is 100%.
For `CNc1cc2c(Nc3cccc(Br)c3)ncnc2cn1`, the residual activity turned out to be 102%.
Same read-out and setting: for `Oc1cccc(-c2nc(N3CCOCC3)c3oc4ncccc4c3n2)c1` the value was 97.4%.

The target of the next experiment is MARK3 (human) (UniProt P27448). The experiment is described as above. The conditions noted are these: compound 0.5 µM; ATP 10 µM.
Chain of MARK3 (human) (P27448 whole entry, looked up): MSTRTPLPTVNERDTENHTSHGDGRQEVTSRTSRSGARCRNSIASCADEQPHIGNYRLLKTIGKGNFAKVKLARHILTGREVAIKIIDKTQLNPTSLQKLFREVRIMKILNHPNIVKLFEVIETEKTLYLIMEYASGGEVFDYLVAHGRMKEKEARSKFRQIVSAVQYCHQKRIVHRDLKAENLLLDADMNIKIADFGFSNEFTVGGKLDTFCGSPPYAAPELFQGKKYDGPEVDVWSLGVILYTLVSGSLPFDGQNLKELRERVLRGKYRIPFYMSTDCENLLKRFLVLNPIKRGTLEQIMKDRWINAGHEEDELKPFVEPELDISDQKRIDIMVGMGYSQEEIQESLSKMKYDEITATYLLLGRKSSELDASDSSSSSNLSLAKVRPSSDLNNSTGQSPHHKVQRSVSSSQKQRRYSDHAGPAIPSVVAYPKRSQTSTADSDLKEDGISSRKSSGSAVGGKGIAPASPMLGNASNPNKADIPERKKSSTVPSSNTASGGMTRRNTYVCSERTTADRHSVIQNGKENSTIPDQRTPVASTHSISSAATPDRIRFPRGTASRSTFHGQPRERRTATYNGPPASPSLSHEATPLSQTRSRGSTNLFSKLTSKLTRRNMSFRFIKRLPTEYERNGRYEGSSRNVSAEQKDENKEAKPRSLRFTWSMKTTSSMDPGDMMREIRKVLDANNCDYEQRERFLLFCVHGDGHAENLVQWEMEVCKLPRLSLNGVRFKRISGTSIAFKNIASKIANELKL
For the compound `Cc1[nH]c(/C=C2\C(=O)Nc3ccc(S(=O)(=O)N(C)c4cccc(Cl)c4)cc32)c(C)c1C(=O)N1CCN(C)CC1`, the residual activity was found to be 41.9%.
For `CNc1cc2c(Nc3cccc(Br)c3)ncnc2cn1`, the residual activity was 82.2%.
Regarding `Oc1cccc(-c2nc(N3CCOCC3)c3oc4ncccc4c3n2)c1`, the residual activity was 97.4%.

The next experiment addresses MARK4 (human) (UniProt Q96L34). The experiment is described as above. The conditions noted are these: compound 0.5 µM; ATP 10 µM.
For `Cc1[nH]c(/C=C2\C(=O)Nc3ccc(S(=O)(=O)N(C)c4cccc(Cl)c4)cc32)c(C)c1C(=O)N1CCN(C)CC1`, the residual activity was found to be 36.2%.
Regarding `CNc1cc2c(Nc3cccc(Br)c3)ncnc2cn1`, the residual activity was determined as 84.5%.
On to `Oc1cccc(-c2nc(N3CCOCC3)c3oc4ncccc4c3n2)c1`, for which the residual activity was determined as 93.4%.

The target in a further experiment is MATK (human) (UniProt P42679). The description is as above. The conditions noted are these: compound 0.5 µM; ATP 10 µM.
Turning to `Cc1[nH]c(/C=C2\C(=O)Nc3ccc(S(=O)(=O)N(C)c4cccc(Cl)c4)cc32)c(C)c1C(=O)N1CCN(C)CC1`, the residual activity was found to be 100%.
The same measure, in the same setting: then `CNc1cc2c(Nc3cccc(Br)c3)ncnc2cn1`, with 88%; and `Oc1cccc(-c2nc(N3CCOCC3)c3oc4ncccc4c3n2)c1`, with 86.7%.

Another experiment concerns the target MERTK (human) (UniProt Q12866). Described as above. The conditions noted are these: compound 0.5 µM; ATP 10 µM.
With `Cc1[nH]c(/C=C2\C(=O)Nc3ccc(S(=O)(=O)N(C)c4cccc(Cl)c4)cc32)c(C)c1C(=O)N1CCN(C)CC1`, the residual activity came out at 21.4%.
On the same count and under the same terms, then `CNc1cc2c(Nc3cccc(Br)c3)ncnc2cn1`, with 87.5%.
As to `Oc1cccc(-c2nc(N3CCOCC3)c3oc4ncccc4c3n2)c1`, the residual activity is 87.8%.

Another experiment has as its target MINK1 (human) (UniProt Q8N4C8). Described as above. The conditions noted are these: compound 0.5 µM; ATP 10 µM.
Regarding `Cc1[nH]c(/C=C2\C(=O)Nc3ccc(S(=O)(=O)N(C)c4cccc(Cl)c4)cc32)c(C)c1C(=O)N1CCN(C)CC1`, the residual activity was found to be 68.7%.
With `CNc1cc2c(Nc3cccc(Br)c3)ncnc2cn1`, the residual activity stood at 91.9%.
Consider `Oc1cccc(-c2nc(N3CCOCC3)c3oc4ncccc4c3n2)c1`, for which the residual activity is 96%.

Another experiment addresses MYLK2 (human) (UniProt Q9H1R3). Described as above. The conditions noted are these: compound 0.5 µM; ATP 10 µM.
As to `Cc1[nH]c(/C=C2\C(=O)Nc3ccc(S(=O)(=O)N(C)c4cccc(Cl)c4)cc32)c(C)c1C(=O)N1CCN(C)CC1`, the residual activity stood at 73.8%.
On to `CNc1cc2c(Nc3cccc(Br)c3)ncnc2cn1`, for which the residual activity was 97.3%.
As for `Oc1cccc(-c2nc(N3CCOCC3)c3oc4ncccc4c3n2)c1`, the residual activity came out at 99%.

The target in the next experiment is NEK11 (human) (UniProt Q8NG66). Described as above. The conditions noted are these: compound 0.5 µM; ATP 10 µM.
Chain of NEK11 (human) (Q8NG66 whole entry, looked up): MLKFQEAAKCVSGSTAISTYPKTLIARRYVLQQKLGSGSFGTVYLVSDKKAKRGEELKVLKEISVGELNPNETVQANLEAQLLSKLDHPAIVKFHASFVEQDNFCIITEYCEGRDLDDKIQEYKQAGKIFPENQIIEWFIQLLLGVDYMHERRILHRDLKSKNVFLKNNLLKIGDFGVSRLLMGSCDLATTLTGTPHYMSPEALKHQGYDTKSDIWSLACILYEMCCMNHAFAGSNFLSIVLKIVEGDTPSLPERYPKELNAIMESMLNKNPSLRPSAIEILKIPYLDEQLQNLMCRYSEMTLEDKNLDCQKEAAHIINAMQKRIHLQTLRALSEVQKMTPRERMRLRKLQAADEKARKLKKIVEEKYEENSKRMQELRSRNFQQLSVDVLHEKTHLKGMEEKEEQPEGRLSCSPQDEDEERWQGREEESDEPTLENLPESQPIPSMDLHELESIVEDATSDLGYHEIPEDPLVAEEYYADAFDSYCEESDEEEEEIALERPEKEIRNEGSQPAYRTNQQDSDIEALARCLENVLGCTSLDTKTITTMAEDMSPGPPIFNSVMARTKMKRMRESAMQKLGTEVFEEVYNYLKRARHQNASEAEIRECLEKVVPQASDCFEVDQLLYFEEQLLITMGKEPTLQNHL
As for `Cc1[nH]c(/C=C2\C(=O)Nc3ccc(S(=O)(=O)N(C)c4cccc(Cl)c4)cc32)c(C)c1C(=O)N1CCN(C)CC1`, the residual activity was determined as 103%.
Still for that read-out and setting: then `CNc1cc2c(Nc3cccc(Br)c3)ncnc2cn1`, with 106%.
Consider `Oc1cccc(-c2nc(N3CCOCC3)c3oc4ncccc4c3n2)c1`, for which the residual activity came out at 109%.

For the next experiment, the target named is NUAK2 (human) (UniProt Q9H093). The experiment is described as above. The conditions noted are these: compound 0.5 µM; ATP 10 µM.
With `Cc1[nH]c(/C=C2\C(=O)Nc3ccc(S(=O)(=O)N(C)c4cccc(Cl)c4)cc32)c(C)c1C(=O)N1CCN(C)CC1`, the residual activity came to 61.9%.
Take `CNc1cc2c(Nc3cccc(Br)c3)ncnc2cn1`: the residual activity is 85%.
Take `Oc1cccc(-c2nc(N3CCOCC3)c3oc4ncccc4c3n2)c1`: the residual activity turned out to be 75.3%.

The next experiment addresses PAK7 (human) (UniProt Q9P286). Described as above. The conditions noted are these: compound 0.5 µM; ATP 10 µM.
Turning to `Cc1[nH]c(/C=C2\C(=O)Nc3ccc(S(=O)(=O)N(C)c4cccc(Cl)c4)cc32)c(C)c1C(=O)N1CCN(C)CC1`, the residual activity came to 97.1%.
For the compound `CNc1cc2c(Nc3cccc(Br)c3)ncnc2cn1`, the residual activity worked out at 90.8%.
The same measure, in the same setting: for `Oc1cccc(-c2nc(N3CCOCC3)c3oc4ncccc4c3n2)c1` the value was 92.8%.

The target in a further experiment is PIM3 (human) (UniProt Q86V86). The description is as above. The conditions noted are these: compound 0.5 µM; ATP 10 µM.
Regarding `Cc1[nH]c(/C=C2\C(=O)Nc3ccc(S(=O)(=O)N(C)c4cccc(Cl)c4)cc32)c(C)c1C(=O)N1CCN(C)CC1`, the residual activity was 106%.
On the same count and under the same terms, for `CNc1cc2c(Nc3cccc(Br)c3)ncnc2cn1` the value was 55.2%; for `Oc1cccc(-c2nc(N3CCOCC3)c3oc4ncccc4c3n2)c1`, 104%.

In another experiment the target is PRKCD (human) (UniProt Q05655). Described as above. The conditions noted are these: compound 0.5 µM; ATP 10 µM.
Chain of PRKCD (human) (Q05655 whole entry, looked up): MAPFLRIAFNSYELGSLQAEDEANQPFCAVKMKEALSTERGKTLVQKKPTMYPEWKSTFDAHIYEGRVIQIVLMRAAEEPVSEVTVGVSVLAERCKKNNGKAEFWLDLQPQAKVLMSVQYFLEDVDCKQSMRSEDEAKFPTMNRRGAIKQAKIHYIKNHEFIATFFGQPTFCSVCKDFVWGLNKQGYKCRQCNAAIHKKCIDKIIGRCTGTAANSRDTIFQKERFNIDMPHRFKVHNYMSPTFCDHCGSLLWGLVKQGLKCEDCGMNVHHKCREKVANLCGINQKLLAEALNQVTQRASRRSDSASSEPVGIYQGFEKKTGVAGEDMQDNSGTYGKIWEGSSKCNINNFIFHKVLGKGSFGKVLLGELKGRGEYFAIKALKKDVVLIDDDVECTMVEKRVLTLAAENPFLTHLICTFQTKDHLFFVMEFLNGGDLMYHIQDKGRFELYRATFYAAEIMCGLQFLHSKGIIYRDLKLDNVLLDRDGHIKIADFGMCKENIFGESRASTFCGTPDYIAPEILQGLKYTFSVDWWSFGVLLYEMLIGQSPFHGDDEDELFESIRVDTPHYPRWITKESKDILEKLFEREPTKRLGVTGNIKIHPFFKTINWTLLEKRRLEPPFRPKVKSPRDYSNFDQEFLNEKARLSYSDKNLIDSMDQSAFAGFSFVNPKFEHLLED
As to `Cc1[nH]c(/C=C2\C(=O)Nc3ccc(S(=O)(=O)N(C)c4cccc(Cl)c4)cc32)c(C)c1C(=O)N1CCN(C)CC1`, the residual activity came to 95.3%.
With `CNc1cc2c(Nc3cccc(Br)c3)ncnc2cn1`, the residual activity is 94.7%.
For the compound `Oc1cccc(-c2nc(N3CCOCC3)c3oc4ncccc4c3n2)c1`, the residual activity turned out to be 96%.

The target of a further experiment is PRKCG (human) (UniProt P05129). Described as above. The conditions noted are these: compound 0.5 µM; ATP 10 µM.
`Cc1[nH]c(/C=C2\C(=O)Nc3ccc(S(=O)(=O)N(C)c4cccc(Cl)c4)cc32)c(C)c1C(=O)N1CCN(C)CC1`: the residual activity was found to be 94.8%.
Turning to `CNc1cc2c(Nc3cccc(Br)c3)ncnc2cn1`, the residual activity was determined as 105%.
As for `Oc1cccc(-c2nc(N3CCOCC3)c3oc4ncccc4c3n2)c1`, the residual activity was found to be 102%.

Another experiment concerns the target PRKCH (human) (UniProt P24723). The experiment is described as above. The conditions noted are these: compound 0.5 µM; ATP 10 µM.
Consider `Cc1[nH]c(/C=C2\C(=O)Nc3ccc(S(=O)(=O)N(C)c4cccc(Cl)c4)cc32)c(C)c1C(=O)N1CCN(C)CC1`, for which the residual activity was determined as 88.7%.
On to `CNc1cc2c(Nc3cccc(Br)c3)ncnc2cn1`, for which the residual activity stood at 95.7%.
Still for that read-out and setting: for `Oc1cccc(-c2nc(N3CCOCC3)c3oc4ncccc4c3n2)c1` the value was 89.8%.

In a further experiment the target is RPS6KB2 (human) (UniProt Q9UBS0). The description is as above. The conditions noted are these: compound 0.5 µM; ATP 10 µM.
In the case of `Cc1[nH]c(/C=C2\C(=O)Nc3ccc(S(=O)(=O)N(C)c4cccc(Cl)c4)cc32)c(C)c1C(=O)N1CCN(C)CC1`, the residual activity came out at 98.4%.
On to `CNc1cc2c(Nc3cccc(Br)c3)ncnc2cn1`, for which the residual activity was 99.8%.
Turning to `Oc1cccc(-c2nc(N3CCOCC3)c3oc4ncccc4c3n2)c1`, the residual activity is 95.8%.

The target of a further experiment is STK11 (human) (UniProt Q15831). Described as above. The conditions noted are these: compound 0.5 µM; ATP 10 µM.
Regarding `Cc1[nH]c(/C=C2\C(=O)Nc3ccc(S(=O)(=O)N(C)c4cccc(Cl)c4)cc32)c(C)c1C(=O)N1CCN(C)CC1`, the residual activity came out at 89.9%.
In the case of `CNc1cc2c(Nc3cccc(Br)c3)ncnc2cn1`, the residual activity came out at 98.3%.
Regarding `Oc1cccc(-c2nc(N3CCOCC3)c3oc4ncccc4c3n2)c1`, the residual activity turned out to be 86.4%.

The next experiment has as its target TAOK2 (human) (UniProt Q9UL54). The description is as above. The conditions noted are these: compound 0.5 µM; ATP 10 µM.
For the compound `Cc1[nH]c(/C=C2\C(=O)Nc3ccc(S(=O)(=O)N(C)c4cccc(Cl)c4)cc32)c(C)c1C(=O)N1CCN(C)CC1`, the residual activity was 21.9%.
`CNc1cc2c(Nc3cccc(Br)c3)ncnc2cn1`: the residual activity was 95.3%.
The same measure, in the same setting: for `Oc1cccc(-c2nc(N3CCOCC3)c3oc4ncccc4c3n2)c1` the value was 92.2%.

A further experiment concerns the target TGFBR1 (human) (UniProt P36897). Described as above. The conditions noted are these: compound 0.5 µM; ATP 10 µM.
As for `Cc1[nH]c(/C=C2\C(=O)Nc3ccc(S(=O)(=O)N(C)c4cccc(Cl)c4)cc32)c(C)c1C(=O)N1CCN(C)CC1`, the residual activity was 103%.
Regarding `CNc1cc2c(Nc3cccc(Br)c3)ncnc2cn1`, the residual activity was determined as 97.7%.
The same measure, in the same setting: for `Oc1cccc(-c2nc(N3CCOCC3)c3oc4ncccc4c3n2)c1` the value was 95%.

The next experiment addresses TYRO3 (human) (UniProt Q06418). The experiment is described as above. The conditions noted are these: compound 0.5 µM; ATP 10 µM.
As to `Cc1[nH]c(/C=C2\C(=O)Nc3ccc(S(=O)(=O)N(C)c4cccc(Cl)c4)cc32)c(C)c1C(=O)N1CCN(C)CC1`, the residual activity was found to be 34.7%.
`CNc1cc2c(Nc3cccc(Br)c3)ncnc2cn1`: the residual activity was found to be 98.8%.
As to `Oc1cccc(-c2nc(N3CCOCC3)c3oc4ncccc4c3n2)c1`, the residual activity amounted to 102%.

The target in a further experiment is ULK1 (human) (UniProt O75385). The description is as above. The conditions noted are these: compound 0.5 µM; ATP 10 µM.
Chain of ULK1 (human) (O75385 whole entry, looked up): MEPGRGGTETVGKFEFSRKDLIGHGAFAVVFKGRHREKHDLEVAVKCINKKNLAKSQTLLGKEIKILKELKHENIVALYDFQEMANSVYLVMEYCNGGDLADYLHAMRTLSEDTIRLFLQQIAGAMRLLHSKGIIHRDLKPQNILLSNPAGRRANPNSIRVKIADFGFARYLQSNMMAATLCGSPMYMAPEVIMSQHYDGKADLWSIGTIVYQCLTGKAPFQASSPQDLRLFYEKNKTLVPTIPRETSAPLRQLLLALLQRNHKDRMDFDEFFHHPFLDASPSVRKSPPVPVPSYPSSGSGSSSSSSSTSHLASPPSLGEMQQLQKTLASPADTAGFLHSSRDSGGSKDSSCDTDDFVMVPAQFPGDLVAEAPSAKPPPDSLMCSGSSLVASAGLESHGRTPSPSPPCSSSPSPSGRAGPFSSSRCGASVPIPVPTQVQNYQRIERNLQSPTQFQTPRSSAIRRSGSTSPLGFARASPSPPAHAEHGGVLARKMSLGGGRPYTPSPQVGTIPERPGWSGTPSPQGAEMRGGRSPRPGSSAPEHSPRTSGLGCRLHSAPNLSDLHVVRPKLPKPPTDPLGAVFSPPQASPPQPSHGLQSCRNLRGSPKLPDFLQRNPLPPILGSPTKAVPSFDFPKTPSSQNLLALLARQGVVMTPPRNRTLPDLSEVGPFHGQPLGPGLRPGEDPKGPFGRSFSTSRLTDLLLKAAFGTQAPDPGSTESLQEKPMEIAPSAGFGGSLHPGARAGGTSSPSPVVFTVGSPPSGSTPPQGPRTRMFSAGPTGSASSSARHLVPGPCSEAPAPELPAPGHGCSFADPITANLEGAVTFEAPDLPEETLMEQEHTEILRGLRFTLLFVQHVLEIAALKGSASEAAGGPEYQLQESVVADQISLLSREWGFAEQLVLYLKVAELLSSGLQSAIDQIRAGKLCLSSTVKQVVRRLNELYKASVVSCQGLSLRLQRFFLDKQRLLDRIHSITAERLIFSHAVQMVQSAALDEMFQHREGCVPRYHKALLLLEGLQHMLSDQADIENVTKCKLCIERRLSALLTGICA
As for `Cc1[nH]c(/C=C2\C(=O)Nc3ccc(S(=O)(=O)N(C)c4cccc(Cl)c4)cc32)c(C)c1C(=O)N1CCN(C)CC1`, the residual activity came to 5.17%.
As for `CNc1cc2c(Nc3cccc(Br)c3)ncnc2cn1`, the residual activity stood at 98.8%.
As to `Oc1cccc(-c2nc(N3CCOCC3)c3oc4ncccc4c3n2)c1`, the residual activity worked out at 113%.
